Source: US4371537A, “Sulfur-substituted phenoxypyridines having antiviral activity” (The Dow Chemical Company, priority 1981, dated 1983)
≈ marks a conversion by molar mass, not a printed value. Where two headings read alike, the source gives them in different places.

Assays:
[1] = Cytotoxicity in tissue culture testing (HeLa monolayers); assay type: cell-based; details: human, HeLa cells
Description: (§1) Monolayered HeLa cells in 16 millimeter (mm) tissue culture dishes were treated with 1 ml of culture medium (Eagles medium supplemented with fetal calf serum) containing subject compound at an appropriate concentration or containing no compound at all. Culture media such as those described herein are more fully described in standard texts, as for example, Kuchler's Biochemical Methods in Cell Culture and Virology, Dowden, Hutchinson and Ross, Inc., Stroudsberg, PA (1977). Following treatment, cells were challenged with 0.05 ml of rhinovirus type 1A (RV-1A), rhinovirus type 2 (RV-2) or Coxsackie A21 virus (Cox A21) in culture medium. Some of the compounds were also tested against rhinovirus type 5 (RV-5), rhinovirus type 8 (RV-8) or rhinovirus type 64 (RV-64). Cell controls received no viruses.
^1 Cytotoxicity figures represent the concentration of the compound, […]

[2] = system: rhinovirus type 1A (RV-1A); assay: Tissue culture testing, rhinovirus type 1A in HeLa cells; assay type: cell-based; details: 48 and 72 hours, NA = not active at the standard test conditions; for EC50: Enterovirus, read-out: RV-1A: lowest concentration of the compound necessary to cause a 50 percent reduction in cytopathic effect
Description: as §1
(§2) ^2 Lowest concentration of the compound (μg/ml) necessary to cause

[3] = system: Coxsackie A21 virus; assay: Continuous Oral Feeding test in mice challenged IP with Coxsackie A21 virus; assay type: in vivo; details: for Continuous Oral Feeding X^2 (chi-square, deaths vs control): 0.06 % in diet, 240 h; for Continuous Oral Feeding: toxicity of the test compound at the indicated dosage: 0.06% in diet, "toxic" = significantly toxic at the indicated dosage
Description: Some of the compounds were also tested in animals utilizing the following procedure, hereainafter referred to as the "Continuous Oral Feeding" test. Coxsackie A21 virus grown on HeLa cells was administered at a concentration that produces 80 to 100% deaths in mice weighing 8 to 12 grams within 10 days, when the mice are injected (IP) with 0.2 ml of virus preparation. Mice were placed on diets containing test compound dispersed in plain commercially available rodent mash chow at a concentration of 0.06% (weight percent) on day 0. On day 1 the mice were challenged with the virus preparation, 0.2 ml/mouse, (IP). Deaths in both control and experimental groups were recorded for the 10 days and the results analyzed by a chi-square (.chi.^2) test. Chi-square values greater than 3.84 indicate the compound is active (95% confidence level).

[4] = system: rhinovirus type 2 (RV-2); assay: Tissue culture testing, rhinovirus type 2 in HeLa cells; assay type: cell-based; details: 48 and 72 hours, NA = not active at the standard test conditions; for EC50: Enterovirus, read-out: RV-2: lowest concentration of the compound necessary to cause a 50 percent reduction in cytopathic effect
Description: as §1, §2

[5] = system: Coxsackie A21 virus (Cox A21); assay: Tissue culture testing, Coxsackie A21 virus in HeLa cells; assay type: cell-based; details: 48 and 72 hours, NA = not active at the standard test conditions; for EC50: read-out: Cox A21: lowest concentration of the compound necessary to cause a 50 percent reduction in cytopathic effect
Description: as §1, §2

[6] = system: Cox A21; assay: Single Oral Dose test in mice challenged IP with Cox A21; assay type: in vivo, Swiss male mice; details: 600 mg/kg P.O. 3 h after IP challenge; >3.84 significant (95% confidence level)
Description: In addition, some of the compounds were tested in animals utilizing the following procedure, hereinafter referred to as the "Single Oral Dose" test. Swiss male mice, 8-12 grams in weight were challenged intraperitoneally (IP) with 0.2 ml of a normally lethal dose, i.e., a virus dose sufficient to cause […].80-100% mortality in infected animals within 10 days of challenge of Cox A21, in phosphate buffered saline containing 1% heat inactivated fetal calf serum. Three hours later mice were treated orally (P.O.) with 0.2 ml of compound suspended in 0.5% hydroxypropyl methylcellulose (Methocel) or with 0.2 ml of 0.5% Methocel containing no compound. […] Mice were observed daily for 7-10 days post-challenge and deaths recorded. A modified Mantel-Haenzel combined chi-square procedure was used to determine significant difference between virus control and treated groups. Chi-square values greater than 3.84 are considered significant (95% confidence level) in this test.

[7] = observed at 48 and 72 hours post-treatment, read-out: Cytotoxicity: concentration of the compound found to be toxic to the cell

Row | SMILES | MCC [1, 7] | EC50 [2] | Continuous Oral Feeding X^2 (chi-square, deaths vs control) [3] | EC50 [4] | Continuous Oral Feeding: toxicity of the test compound at the indicated dosage [3] | EC50 [5] | MCC ([1]; GI = growth inhibition, read-out: Cytotoxicity: concentration at which the compound inhibited the growth of the tissue culture (GI)) | Single Oral Dose X^2 (chi-square, deaths vs virus control) [6] | RV-1A: lowest concentration of the compound necessary to cause a 50 percent reduction in cytopathic effect [2] | Cox A21: lowest concentration of the compound necessary to cause a 50 percent reduction in cytopathic effect [5] | RV-2: lowest concentration of the compound necessary to cause a 50 percent reduction in cytopathic effect [4]
1 | CS(=O)(=O)c1cccc(Oc2ccc(Br)cc2)n1 [Example 70, 2-(4-bromophenoxy)-6-(methylsulfonyl)pyridine] | 25 µg/mL | 25 µg/mL (≈ 76.2 µM) | 0.035 | 25 µg/mL (≈ 76.2 µM) |  |  |  |  |  |  | 
2 | CS(=O)(=O)c1cccc(Oc2ccc(Cl)c(Cl)c2)n1 [Example 67, 2-(3,4-dichlorophenoxy)-6-(methylsulfonyl)pyridine] | 50 µg/mL | 3.12 µg/mL (≈ 9.82 µM) | 7.39 | 12.5 µg/mL (≈ 39.3 µM) | toxic | ~50 µg/mL (≈ 157 µM) |  |  |  |  | 
3 | CC(=O)c1ccc(Oc2ccc(S(C)(=O)=O)cn2)cc1 [Example 34, 1-(4-((5-(methylsulfonyl)-2-pyridinyl)oxy)phenyl)ethanone] | > 50 µg/mL | 25 µg/mL (≈ 85.8 µM) | 1.727 | 12.5 µg/mL (≈ 42.9 µM) |  |  |  |  |  |  | 
4 | O=C(c1ccccc1)c1ccc(Oc2ccc(S(=O)(=O)Cc3ccccc3)cn2)cc1 [Example 62, phenyl(4-((5-((phenylmethyl)sulfonyl)-2-pyridinyl)oxy)phenyl)methanone] |  | 25 µg/mL (≈ 58.2 µM) | 0.066 |  |  | < 3.12 µg/mL | 50 µg/mL |  |  |  | 
5 | CSc1ccc(Oc2ccc(Cl)c(Cl)c2)nc1 [Example 38, 2-(3,4-dichlorophenoxy)-5-(methylthio)pyridine] | 25 µg/mL | 1.25 µg/mL (≈ 4.37 µM) |  | 2.5 µg/mL (≈ 8.74 µM) |  | 2.5 µg/mL (≈ 8.74 µM) |  | 25.233 |  |  | 
6 | CSc1cncc(Oc2ccc(Cl)c(Cl)c2)c1 [Example 75, 3-(3,4-dichlorophenoxy)-5-(methylthio)pyridine] | 6.25 µg/mL | 6.25 µg/mL (≈ 21.8 µM) |  | 6.25 µg/mL (≈ 21.8 µM) |  | 3.12 µg/mL (≈ 10.9 µM) |  |  |  |  | 
7 | CC(=O)c1ccc(Oc2cccc(S(C)(=O)=O)n2)cc1 [1-(4-((6-(methylsulfonyl)-2-pyridinyl)oxy)phenyl)ethanone] |  |  |  |  |  |  |  |  | not active | not active | not active
8 | CCCCCCS(=O)(=O)c1ccc(Oc2ccc(Cl)c(Cl)c2)nc1 [Example 54, 2-(3,4-dichlorophenoxy)-5-(n-hexylsulfonyl)pyridine] | > 50 µg/mL | 12.5 µg/mL (≈ 32.2 µM) | 0.162 | 12.5 µg/mL (≈ 32.2 µM) |  |  |  |  |  |  | 
9 | CC(C)(C)c1ccc(Oc2ccc(S(C)(=O)=O)cn2)cc1 [Example 33, 2-(4-(1,1-dimethylethyl)phenoxy)-5-(methylsulfonyl)pyridine] | > 100 µg/mL |  | 4.042 | 12.5 µg/mL (≈ 40.9 µM) |  |  |  |  |  |  | 
10 | CS(=O)(=O)c1cc(Oc2ccc(Cl)c(Cl)c2)ccn1 [Example 66, 4-(3,4-dichlorophenoxy)-2-(methylsulfonyl)pyridine] | 25 µg/mL | 12.5 µg/mL (≈ 39.3 µM) |  | 12.5 µg/mL (≈ 39.3 µM) |  | 12.5 µg/mL (≈ 39.3 µM) |  |  |  |  | 
11 | CC(=O)c1ccc(Oc2ccc(S(=O)(=O)C(C)C)cn2)cc1 [Example 52, 1-(4-((5-((1-methylethyl)sulfonyl)-2-pyridinyl)oxy)phenyl)ethanone] | ≥ 50 µg/mL | 50 µg/mL (≈ 157 µM) | 1.140 | 50 µg/mL (≈ 157 µM) |  | 25 µg/mL (≈ 78.3 µM) |  |  |  |  | 
12 | O=S(=O)(c1ccc(Oc2ccc(Cl)c(Cl)c2)nc1)C1CCCCC1 [Example 58, 2-(3,4-dichlorophenoxy)-5-(cyclohexylsulfonyl)pyridine] | 50 µg/mL | 25 µg/mL (≈ 64.7 µM) |  | 12.5 µg/mL (≈ 32.4 µM) |  | 25 µg/mL (≈ 64.7 µM) |  |  |  |  | 
13 | CS(=O)(=O)c1cccnc1Oc1ccc(C(=O)c2ccccc2)cc1 [Example 72, (4-((3-(methylsulfonyl)-2-pyridinyl)oxy)phenyl)phenylmethanone] | 25 µg/mL | 25 µg/mL (≈ 70.7 µM) |  | 25 µg/mL (≈ 70.7 µM) |  | 12.5 µg/mL (≈ 35.4 µM) |  |  |  |  | 
14 | CCS(=O)(=O)c1ccc(Oc2cc(Cl)c(Cl)cc2Cl)nc1 [Example 48, 5-(ethylsulfonyl)-2-(2,4,5-trichlorophenoxy)pyridine] | > 50 µg/mL | < 3.12 µg/mL |  | 3.12 µg/mL (≈ 8.52 µM) |  | 6.25 µg/mL (≈ 17 µM) |  |  |  |  | 
15 | CS(=O)(=O)c1cncc(Oc2ccc(Cl)c(Cl)c2)c1 [Example 77, 3-(3,4-dichlorophenoxy)-5-(methylsulfonyl)pyridine] | > 50 µg/mL | 6.25 µg/mL (≈ 19.6 µM) |  | 12.5 µg/mL (≈ 39.3 µM) |  | 3.12 µg/mL (≈ 9.82 µM) |  |  |  |  | 
16 | O=S(=O)(c1ccc(Oc2ccc(Br)cc2)nc1)C1CCCCC1 [Example 57, 2-(4-bromophenoxy)-5-(cyclohexylsulfonyl)pyridine] | 50 µg/mL | 25 µg/mL (≈ 63.1 µM) |  | 25 µg/mL (≈ 63.1 µM) |  | 6.25 µg/mL (≈ 15.8 µM) |  |  |  |  | 
17 | O=C(c1ccccc1)c1ccc(Oc2ccc(S(=O)(=O)C3CCCCC3)cn2)cc1 [Example 59, (4-((5-(cyclohexylsulfonyl)-2-pyridinyl)oxy)phenyl)phenylmethanone] | 12.5 µg/mL | 3.12 µg/mL (≈ 7.41 µM) |  | 12.5 µg/mL (≈ 29.7 µM) |  | < 3.12 µg/mL |  |  |  |  | 
18 | CCS(=O)(=O)c1cccnc1Oc1ccc(Cl)c(Cl)c1 [Example 73, 2-(3,4-dichlorophenoxy)-3-(ethylsulfonyl)pyridine] | 25 µg/mL | 25 µg/mL (≈ 75.3 µM) |  | 25 µg/mL (≈ 75.3 µM) |  |  |  |  |  |  | 
19 | CS(=O)(=O)c1ccc(Oc2ccc(Oc3ccccc3)cc2)nc1 [Example 28, 5-(methylsulfonyl)-2-(4-phenoxyphenoxy)pyridine] | > 100 µg/mL |  | 6.249 | 25 µg/mL (≈ 73.2 µM) | toxic | 50 µg/mL (≈ 146 µM) |  |  |  |  | 
20 | CC(=O)c1ccc(Oc2ccc(S(=O)(=O)C3CCCCC3)cn2)cc1 [Example 56, 1-(4-((5-(cyclohexylsulfonyl)-2-pyridinyl)oxy)phenyl)ethanone] | 12.5 µg/mL | ~12.5 µg/mL (≈ 34.8 µM) | 0.019 | ~12.5 µg/mL (≈ 34.8 µM) |  | 3.12 µg/mL (≈ 8.69 µM) |  |  |  |  | 
21 | CCCCCCS(=O)(=O)c1ccc(Oc2ccc(Br)cc2)nc1 [Example 53, 2-(4-bromophenoxy)-5-(n-hexylsulfonyl)pyridine] | > 50 µg/mL | 25 µg/mL (≈ 62.8 µM) | 2.925 | 25 µg/mL (≈ 62.8 µM) |  | 12.5 µg/mL (≈ 31.4 µM) |  |  |  |  | 
22 | CSc1ccc(Oc2ccc(S(C)(=O)=O)cn2)cc1 [Example 37, 2-(4-(methylthio)phenoxy)-5-(methylsulfonyl)pyridine] | > 50 µg/mL | < 3 µg/mL |  | < 2 µg/mL |  | 3 µg/mL (≈ 10.2 µM) |  |  |  |  | 
23 | CS(=O)(=O)c1ccnc(Oc2ccc(Cl)c(Cl)c2)c1 [Example 65, 2-(3,4-dichlorophenoxy)-4-(methylsulfonyl)pyridine] | 50 µg/mL | 25 µg/mL (≈ 78.6 µM) |  | 25 µg/mL (≈ 78.6 µM) |  | < 3.12 µg/mL |  |  |  |  | 
24 | CS(=O)(=O)c1cccnc1Oc1ccc(Cl)c(Cl)c1 [Example 71, 2-(3,4-dichlorophenoxy)-3-(methylsulfonyl)pyridine] | 50 µg/mL | 25 µg/mL (≈ 78.6 µM) |  | 50 µg/mL (≈ 157 µM) |  | 50 µg/mL (≈ 157 µM) |  |  |  |  | 
25 | C[S+]([O-])c1cncc(Oc2ccc(Cl)c(Cl)c2)c1 (stereo not shown) [Example 76, 3-(3,4-dichlorophenoxy)-5-(methylsulfinyl)pyridine] | 25 µg/mL | 12.5 µg/mL (≈ 41.4 µM) |  | 6.25 µg/mL (≈ 20.7 µM) |  | 25 µg/mL (≈ 82.7 µM) |  |  |  |  | 
26 | CCS(=O)(=O)c1ccc(Oc2ccc3c(c2)OCO3)nc1 [Example 41, 5-(ethylsulfonyl)-2-(3,4-methylenedioxyphenoxy)pyridine] | ≥ 50 µg/mL |  |  | 25 µg/mL (≈ 81.3 µM) |  |  |  |  |  |  | 
